{
  "source": "patent US20220280543A1",
  "about": "“DDX17 AND NLRC4 TARGETING FOR INFLAMMATORY DISEASES” (University of Virginia Patent Foundation, priority 2019, published 2022)",
  "key": {"[1]": {"test_system": "CXCL10, IFNB, IL-1β, CASPASE-1 expression", "experiment": "Alu RNA induced type I interferon response and inflammatory priming, qPCR, BMDM with DDX17 knockdown", "assay_type": "cell-based, mouse", "details": "siRNA 24 hours before Alu RNA 100 pmol, qPCR (FIGS. 14A, 14B)", "protocol": "FIGS. 14A and 14B. […] Wild type BMDM cell were transfected with siRNA target on DDX17 (CCAAUCUGAUGUAUCAGGA; SEQ ID NO: 91), and then 24 hours later, BMDM cells were treated with Alu RNA (SEQ ID NO: 86; 100 pmol). Total RNA extracted for qPCR assay.\nWe previously reported that Alu RNA (SEQ ID NO: 86) induces a type I interferon (IFN) response and inflammatory priming in BMDMs. Since DDX17 is essential for Alu RNA (SEQ ID NO: 86) induced inflammasome activation, we tested whether DDX17 knockdown could affect downstream events of the inflammasome cascade such as the type I IFN response."}, "[2]": {"test_system": "ASC oligomerization", "experiment": "Alu RNA induced ASC oligomerization in THP1 cells after siRNA knockdown", "assay_type": "cell-based, human", "details": "siRNA knockdown (FIG. 12A)", "excerpt": "(§1) FIGS. 12A and 12B. DDX17 knockdown blocks Alu RNA (SEQ ID NO: 86) induced ASC oligomerization and IL-1β release. FIG. 12A. siRNA mediated DDX17 knockdown (siRNA for DDX17: CCAAUCUGAUGUAUCAGGA; SEQ ID NO: 91), but not Ddx5 (siRNA for DDX5: GGAAAUUACAGUUAGAGGU; SEQ ID NO: 89) in THP1 cells, blocked Alu RNA (SEQ ID NO: 86) induced ASC oligomerization. The band of ASC oligomers were indicated by black arrow. FIG. 12B. siRNA mediated DDX17 knockdown, but not Ddx5 in THP1 cells, blocked Alu RNA (SEQ ID NO: 86) induced IL-1β release.\n(§2) To further confirm that DDX17 is the sensor for NLRC4, we investigated caspase-1 cleavage by immunoblotting and IL-1β secretion by ELISA in Alu RNA (SEQ ID NO: 86) or mock treated THP1 cells and DDX17 KO BMDMs respectively."}, "[3]": {"test_system": "NLRC4 inflammasome", "experiment": "Flagellin induced classical NLRC4 inflammasome (caspase-1) after DDX17 knockdown", "assay_type": "cell-based", "details": "Flagellin 3 μg/ml, siRNA 24 hours before (FIG. 15)", "protocol": "(§3) FIG. 15. […] THP1 cell were transfected with siRNA target on DDX17 (siRNA sequence: CCAAUCUGAUGUAUCAGGA; SEQ ID NO: 91), and then 24 hours later, Flagellin (3 μg/ml) or LPS (125 ng/ml) plus ATP ([…]/30 minutes), DOTAP plus LPS was added to the THP1 cells. Supernatants were collected for Caspase-1 detection. […] Loading control show by actin. The caspase-1 precursor is referred as p45, and the active form of caspase-1 as p20. The adaptor protein for inflammasome assembly, apoptosis-associated speck-like protein containing a CARD (ASC) is labeled as ASC. The caspase-1p20) bands were indicated with black arrow.\n(§4) We finally examined whether DDX17 has a role in conventional NLRC4 activation by flagellin that requires NAIP and LPS+ATP dependent NLRP3 inflammasome activation. We treated […] with flagellin or LPS+ATP and transfected with siDDX17 and examined NLRC4 or NLRP3 dependent caspase-1 cleavage."}, "[4]": {"test_system": "IL-1β", "experiment": "Alu RNA induced IL-1β release in THP1 cells after siRNA knockdown, ELISA", "assay_type": "cell-based, human", "details": "siRNA knockdown (FIG. 12B)", "excerpt": "as §1, §2"}, "[5]": {"test_system": "NLRP3 inflammasome", "experiment": "LPS+ATP induced NLRP3 inflammasome (caspase-1) after DDX17 knockdown", "assay_type": "cell-based", "details": "LPS 125 ng/ml plus ATP, siRNA 24 hours before (FIG. 15)", "protocol": "as §3, §4"}, "[6]": {"test_system": "RPE degeneration", "experiment": "Alu RNA induced RPE degeneration in mice, fundus images and ZO-1 staining", "assay_type": "in vivo", "details": "mice, subretinal Alu RNA; fundus and ZO-1 (FIGS. 25B, 26)", "protocol": "FIGS. 25A and 25B. NLRC4 knockdown blocks Alu RNA (SEQ ID NO: 86) induced ASC oligomerization and RPE degeneration. Human RPE cell treated with siRNA target on NLRC4 (SMARTPOOL siRNA for NLRC4: CAACUGGGCUCCUCUGUAA; SEQ ID NO: 93) and NAIP (SMARTPOOL siRNA for NAIP: GUAAAGAGCUAUAUGGAUA; SEQ ID NO: 94), 24 hours later, treated with Alu RNA (SEQ ID NO: 86 at 100 pmol) FIG. 25A. […] The band of ASC oligomers was indicated by black arrow. […] The hyperdense areas due to the RPE degeneration in fundus images and ZO-1 disorganizations in RPE sheet are indicated by white arrows.\nFIG. 26. […] Wilde type of C57/B6 mice were intravitreally injected with siRNA target on Ddx17 (siRNA for Ddx17: GGCUAGAUGUGGAAGAUGU; SEQ ID NO: 95), and two days later, Nlrc4^−/−, Naip1-6^−/−, mice and Ddx17 knockdown mice were subretinally injected with Alu RNA (SEQ ID NO: 86). […] The hyperdense areas due to the RPE degeneration in fundus images and ZO-1 disorganizations in RPE sheet are indicated by white arrows.\nNext, we asked whether Alu RNA (SEQ ID NO: 86) also triggered NLRC4 inflammasome activation in human RPE cells. We performed immunofluorescence staining experiments to examine whether Alu RNA (SEQ ID NO: 86) can induce NLRC4 speck formation in human RPE cells. We noticed punctate structures resembling specks of NLRC4 in human RPE cells in response to Alu RNA (SEQ ID NO: 86) treatment (FIG. 24A). […] We further investigated downstream events of NLRC4 inflammasome activation by studying NLRC4-induced ASC oligomerization, a critical step involved in caspase-1 cleavage. NLRC4 siRNA, when co-administered with Alu RNA (SEQ ID NO: 86), blocked ASC oligomerization in vitro (FIG. 25A) and RPE degeneration in vivo (FIG. 25B).\nWe delivered Alu RNA (SEQ ID NO: 86) or Alu RNA (SEQ ID NO: 86)+siDDX17 subretinally in WT or NLRC4 KO or NAIP1-6 KO mice and examined for RPE degeneration using fundus photos and ZO-1 staining as described previously."}, "[7]": {"test_system": "caspase-1", "experiment": "Alu RNA induced caspase-1 activation in THP1 cells after siRNA knockdown", "assay_type": "cell-based, human", "details": "siRNA knockdown (FIGS. 11A, 11B)", "excerpt": "FIGS. 11A and 11B. Ddx17 involved in Alu RNA (SEQ ID NO: 86) induced inflammasome independent of its microprocessor function. DDX17 is a component of microprocessor complexes with DDX5 and Drosha. To test whether the microprocessor function of DDX17 is required for Alu RNA (SEQ ID NO: 86) induced inflammasome, we measured caspase-1 activation in THP cells with DDX5 or Drosha knockdown (siRNA for DDX5: GGAAAUUACAGUUAGAGGU; SEQ ID NO: 89); siRNA for Drosha: GACAAGUUGAUAGGAUAUA; SEQ ID NO: 90). FIG. 11A. siRNA mediated Ddx17 knockdown, but not Ddx5 in THP1 cells, blocked Alu RNA (SEQ ID NO: 86) induced caspase-1 activation. […] The caspase-1 (p20) bands were indicated with black arrows.\nWe next examined whether DDX5 or DDX17 was the sensor for Alu RNA (SEQ ID NO: 86) induced NLRC4 inflammasome activation. Due to the high degree of similarity in the sequences of DDX5 and DDX17, we designed 3 siRNAs targeting DDX5 alone, DDX17 alone, or both DDX5 and DDX17, and confirmed their target efficiency in THP1 cells (FIG. 11A). […] Therefore, we tested whether Drosha is also involved in SINE RNA-DDX17-NLRC4 axis. […] These observations implicate that DDX17 mediated SINE RNA induced NLRC4 inflammasome is independent of microprocessor function."}},
  "data": [
    {"substance": "siDDX17: siRNA for DDX17: CCAAUCUGAUGUAUCAGGA; SEQ ID NO: 91 (chemistry not fully specified)", "values": [
      {"measurement": "expression of caspase-1, CXCL10, IFNβ, IL-18 and IL-1β genes after Alu RNA", "setting": "[1]", "value": "did not affect"},
      {"measurement": "Alu RNA induced ASC oligomerization, THP1 cells", "setting": "[2]", "value": "prevented"},
      {"measurement": "flagellin induced NLRC4 inflammasome, caspase-1 levels", "setting": "[3]", "value": "does not affect"},
      {"measurement": "Alu RNA induced IL-1β release, THP1 cells, ELISA", "setting": "[4]", "value": "significantly reduced"},
      {"measurement": "LPS+ATP induced NLRP3 inflammasome, caspase-1 levels", "setting": "[5]", "value": "does not affect"},
      {"measurement": "Alu RNA induced RPE degeneration in vivo, effect of siRNA", "setting": "[6]", "value": "rescued from this phenotype"},
      {"measurement": "caspase-1 cleavage in Alu RNA treated THP1 cells", "setting": "[7]", "value": "inhibited"},
      {"measurement": "caspase-1 cleavage in Alu RNA treated THP1 cells", "setting": "[7]; listed as DDX17 siRNA", "value": "reduce"}
    ]}
  ]
}
